Experimental data reported in patent publication US7998986B2, “Modulators of LXR” (Exelixis Patent Company LLC, priority 2001, dated 2011).

What was measured:
LXRβ [1] = molecular target: T1, LXRβ (Homo sapiens, UniProt P55055); assay: Scintillation proximity assay (SPA), displacement of 3H-24,25-epoxycholesterol; parameters: made in house; settings: scintillation proximity binding assay; average of at least two dose response experiments; read-out: Ki(β)
T1 sequence (P55055 1-460): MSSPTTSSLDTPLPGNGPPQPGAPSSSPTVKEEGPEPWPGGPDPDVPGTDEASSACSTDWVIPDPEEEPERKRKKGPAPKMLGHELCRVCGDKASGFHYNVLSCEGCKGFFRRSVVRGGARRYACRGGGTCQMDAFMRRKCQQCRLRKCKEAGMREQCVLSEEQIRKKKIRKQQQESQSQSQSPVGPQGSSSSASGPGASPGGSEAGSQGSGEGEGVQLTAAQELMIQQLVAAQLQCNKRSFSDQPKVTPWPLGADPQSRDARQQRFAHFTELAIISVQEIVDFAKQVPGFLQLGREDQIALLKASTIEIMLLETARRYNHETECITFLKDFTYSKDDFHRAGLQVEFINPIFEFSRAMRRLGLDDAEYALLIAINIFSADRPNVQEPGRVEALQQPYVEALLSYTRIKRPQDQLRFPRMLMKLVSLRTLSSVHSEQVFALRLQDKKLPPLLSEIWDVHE
T1 sequence (P19793 1-462 partner): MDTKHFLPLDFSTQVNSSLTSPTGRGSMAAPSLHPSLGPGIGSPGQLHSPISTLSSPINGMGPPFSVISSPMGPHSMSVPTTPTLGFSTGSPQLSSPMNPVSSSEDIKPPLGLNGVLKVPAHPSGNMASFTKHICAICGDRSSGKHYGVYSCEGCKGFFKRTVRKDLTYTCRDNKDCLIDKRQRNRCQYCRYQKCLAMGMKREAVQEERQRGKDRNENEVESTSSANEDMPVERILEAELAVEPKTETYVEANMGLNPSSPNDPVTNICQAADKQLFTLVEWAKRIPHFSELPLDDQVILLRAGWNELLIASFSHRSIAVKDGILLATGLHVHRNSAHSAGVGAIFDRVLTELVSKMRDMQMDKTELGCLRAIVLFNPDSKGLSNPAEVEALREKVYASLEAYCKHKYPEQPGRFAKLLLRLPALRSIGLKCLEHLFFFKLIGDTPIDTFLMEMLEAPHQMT
Procedure: (§1) The SPA assay measures the radioactive signal generated by the binding of ^3H-24, 25-epoxycholesterol to LXRα or LXRβ. The basis of the assay is the use of SPA beads containing a scintillant, such that when binding to the receptor brings the labeled ligand into proximity with the bead, the energy from the label stimulates the scintillant to emit light. The light is measured using a standard microplate scintillation reader. The ability of a ligand to bind to a receptor can be measured by assessing the degree to which the compound can compete off a radiolabelled ligand with known affinity for the receptor.
(§2) A. Required Materials • 1. Label: ^3H-24, 25-epoxy-cholesterol (Amersham) • 2. LXRα lysate: Baculovirus expressed LXRα/RXR heterodimer with RXR having a 6-HIS tag produced as a crude lysate • 3. LXRβ lysate: Baculovirus expressed LXRβ/RXR heterodimer with RXR having a 6-HIS tag produced as a crude lysate • 4. SPA beads: Ysi copper His-tag SPA beads (Amersham) • 5. Plates: Non-binding surface 96-well plate (Corning) • 6. Protein lysate dilution buffer: (20 mM Tris-HCl pH 7.9, 500 mM NaCl, 5 mM Imidazole). • 7. 2×SPA Buffer: (40 mM K2HPO4/KH2PO4 pH7.3, 100 mM NaCl, 0.05% Tween 20, 20% Glycerol, 4mM EDTA) • 8. 2×SPA Buffer w/o EDTA: (40 mM K2HPO4/KH2PO4 pH7.3, 100 mM NaCl, 0.05% Tween 20, 20% Glycerol)
(§3) B. Preparation of Screening Reagents • 1. [^3H]24,25 Epoxycholesterol (EC) solution. For a single 384-well plate (or 400 wells), add 21 μl [^3H] EC (specific activity 76.5Ci/mmol, concentration 3.2mCi/ml) in 4.4 ml of 2×SPA buffer to a final concentration of 200nM. For each additional 384-well plate, add 19.1 μl additional [^3H] EC and 4.0 ml additional 2×SPA buffer. The final concentration of [^3H] EC in the well will be 50 nM. • 2. Dilute LXRα lysate with protein lysate dilution buffer. Make 1400 μl of diluted LXRα lysate for a 384-well plate, (or 200 wells) and 1120 μl of diluted LXRα lysate for each additional 384-well plate. • 3. Diluted LXRβ lysate with protein lysate dilution buffer. Make 1400 μl of diluted LXRβ lysate for 1 a 384-well plate, (or 200 wells) and 1120 μl of diluted LXRβ lysate for each additional 384-well plate. • 4. SPA bead solution. For 1 a 384-well plate (or 400 wells), mix 3.75 ml of 2× SPA buffer w/o EDTA, 2.25 ml of H2O, and 1.5 ml of Ysi His-tag SPA beads (Vortex well before taking). For each addition 384-well plate, mix additional 3.5 ml of 2×SPA buffer w/o EDTA, 2.1 ml of H2O, and 1.4 ml of Ysi His-tag SPA beads to the SPA bead solution.
(§4) C. Procedure: • 1. Prepare appropriate dilutions of each compound and pipette into the appropriate wells of a multiwell plate. • 2. Add 9.1 μl of [^3H] EC to each well of column 2-23 of the multiwell plate. • 3. Add 5 μl of diluted LXRα lysate to each well of column 2-23 on odd rows of the multiwell plate. • Add 5 μl of diluted LXRβ lysate to each well of column 2-23 on even rows of the multiwell plate. • 4. Add 17.5 μl of SPA bead solution to each well of column 2-23 of the multiwell plate. • 5. Cover the plates with clear sealer. Place the plates in the MicroBeta. Incubate at room temperature for 1 hr. • 6. Count using program n ABASE 3H—384DPM. The setting for n ABASE 3H—384DPM is:
(§5) Assays for LXRα and LXRβ were performed in the identical manner. The determined Ki represents the average of at least two independent dose response experiments. The binding affinity for each compound may be determined by non-linear regression analysis using the one site competition formula to determine the IC50 where:
(§6) [formula] The Ki is than calculated using the Cheng and Prusoff equation where:
(§7) [formula] Ligand=50 nM EC and Kd=200 nM as determined by saturation binding

LXRα [2] = molecular target: T2, LXRα (Homo sapiens, UniProt Q13133); assay: as above; parameters: made in house; settings: scintillation proximity binding assay; average of at least two dose response experiments; read-out: Ki(α)
T2 sequence (Q13133 1-447): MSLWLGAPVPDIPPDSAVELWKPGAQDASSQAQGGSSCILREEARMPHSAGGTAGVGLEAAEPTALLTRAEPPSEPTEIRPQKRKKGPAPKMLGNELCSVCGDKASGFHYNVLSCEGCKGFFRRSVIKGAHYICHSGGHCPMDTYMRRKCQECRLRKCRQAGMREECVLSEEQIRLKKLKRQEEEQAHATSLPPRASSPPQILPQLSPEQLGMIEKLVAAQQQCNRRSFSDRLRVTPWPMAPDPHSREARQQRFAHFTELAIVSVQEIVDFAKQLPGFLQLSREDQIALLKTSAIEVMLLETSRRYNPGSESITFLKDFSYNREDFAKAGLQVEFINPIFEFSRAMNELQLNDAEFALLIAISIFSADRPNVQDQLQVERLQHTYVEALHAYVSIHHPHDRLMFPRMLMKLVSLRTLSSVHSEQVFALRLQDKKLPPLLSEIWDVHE
T2 sequence (P19793 1-462 partner): T1 sequence (P19793 1-462 partner)
Procedure: as §1, §2, §3, §4, §5, §6, §7

LXRβ [3] = molecular target: T1, LXRβ; assay: LXR/LXRE co-transfection assay (luciferase reporter, CV-1 cells); type: cell-based; parameters: expressed in transfected cells; host or cells: CV-1 African Green Monkey Kidney Cells; settings: for EC50: CV-1 cells, agonism; for LXRβ/LXRE Eff: efficacy relative to control N-(3-((4-fluorophenyl)-(naphthalene-2-sulfonyl)-amino)propyl)-2,2-dimethylpropionamide
Description: (§8) To measure the ability of compounds to activate or inhibit the transcriptional activity of LXR, in a cell based assay, the cotransfection assay may be used. It has been shown that LXR functions as a heterodimer with RXR. For the co-transfection assay, expression plasmids for LXR and RXR are introduced via transient transfection into mammalian cells along with a luciferase reporter plasmid that contains one copy of a DNA sequence that is bound by LXR-RXR heterodimers (LXRE; Willy, P. et al. 1995). Treatment of transfected cells with an LXR agonist increases the transcriptional activity of LXR, which is measured by an increase in luciferase activity.
(§9) A. Required Materials • 1. CV-1 African Green Monkey Kidney Cells • 2. Co-transfection Expression plasmids, CMX-hLXR, or CMX-hLXR, CMX-RXR, reporter (LXREx1-Tk-Luciferase), and control (CMX-Galactosidase expression vector). • 3. Transfection reagent such as FuGENE6 (Roche). • 4. 1× Cell lysis buffer (1% Triton X 100 (JT Baker X200-07), 10% Glycerol (JT Baker M778-07), 5 mM Ditriotreitol (Quantum Bioprobe DTT03; add fresh before lysing), 1 mM EGTA (Ethylene Glycol-bis (B-Amino ethyl ether)-N,N,N′,N′-Tetracetic Acid) (Sigma E-4378), 25 mM Tricine (ICN 807420) pH 7.8 • 5. 1× Luciferase assay buffer (pH at 7.8) (0.73 mM ATP, 22.3 mM Tricine, 0.11 mM EDTA 33.3 mM DTT) • 6. 1× Luciferrin/CoA (11 mM Luciferin, 3.05 mM Coenzyme A, 10 mM HEPES
(§10) B. Preparation of Screening Reagents • 1. CV-1 cells are prepared 24 hours prior to the experiment by plating them into T-175 flasks or 500 cm^2 dishes in order to achieve 70-80% confluency on the day of the transfection. The number of cells to be transfected is determined by the number of plates to be screened. Each 384 well plate requires 1.92×10^6 cells or 5000 cells per well. • 2. DNA Transfection Reagent is prepared by mixing the required plasmid DNAs with a cationic lipid transfection reagent such as DOTAP or FuGENE6 by following the instructions provided with the reagents. Optimal DNA amounts need to be determined empirically per cell line and size of vessel to be transfected. • 3. Add 10-12 mls media to the DNA Transfection Reagent and add this mixture to the cells after aspirating media from a T175 cm^2 flask. • 4. Incubate at least 5 hours at 37 degrees to prepare screening cells. • 5. Luciferase assay reagent is prepared by combining before use (per • 10 ml): • 10 ml 1× Luciferase assay buffer • 0.54 mls of 1× Luciferrin/CoA • 0.54 mls of 0.2 M Magnesium sulfate
(§11) 1. C. Procedure • 1. Prepare assay plates by dispensing 0.5 ul of 1 mM compound per well of a 384 well plate to achieve final compound concentration of 10 uM and 1% DMSO. • 2. Remove media from the screening cells, trypsinize, harvest cells by centrifugation, count the cells, and plate at 5000 cells per well in the 384 well assay plate prepared above in a volume of about 45 ul. • 3. Incubate assay plates containing both compounds and screening cells for 20 hours at 37 C. degrees. • 4. Carefully aspirate media from cells and ensure that cells are not lifted off. • 5. Add lysis buffer (30 ul/well) and incubate at least 30 minutes room temp. • 6. Add luciferase assay buffer (30 ul/well) and read assay plates on luminometer (PE Biosystems Northstar reader with on-board injectors, or equivalent). • 7. Read plates immediately after addition of luciferase assay reagent.
(§12) The LXR/LXRE co-transfection assay can be used to establish the EC50/IC50 values for potency and percent activity or inhibition for efficacy. Efficacy defines the activity of a compound relative to a high control ((N-(3-((4-fluorophenyl)-(naphthalene-2-sulfonyl)-amino)propyl)-2,2-dimethylpropionamide)) or a low control (DMSO/vehicle). The dose response curves are generated from an 8 point curve with concentrations differing by ½ LOG units. Each point represents the average of 4 wells of data from a 384 well plate. The curve for the data is generated by using the equation: Y=Bottom+(Top-Bottom)/(1+10^((LogEC50-X)*HillSlope)) […]

LXRα [4] = molecular target: T2, LXRα; assay: as above; type: cell-based; parameters: expressed in transfected cells; host or cells: CV-1 African Green Monkey Kidney Cells; settings: for EC50: CV-1 cells, agonism; for LXRα/LXRE Eff: efficacy relative to control N-(3-((4-fluorophenyl)-(naphthalene-2-sulfonyl)-amino)propyl)-2,2-dimethylpropionamide
Description: as §8, §9, §10, §11, §12

In the case of N#Cc1c(C(F)(F)F)cc(-c2ccccc2)n(N=C2CCCCC2)c1=O [1-Cyclohexylideneamino-2-oxo-6-phenyl-4-trifluoromethyl-1,2-dihydropyridine-3-carbonitrile], the Ki (LXRβ [1]) is reported as 450 nM, the Ki (LXRα [2]) is reported as 690 nM and the EC50 (LXRβ [3]) is reported as 4300 nM. The “LXRβ/LXRE Eff” value (LXRβ [3]) was 72%, the EC50 (LXRα [4]) was 3400 nM and the “LXRα/LXRE Eff” value (LXRα [4]) was 90%.
COc1cccc(-c2cc(C(F)(F)F)c(C#N)c(=O)n2Cc2ccccc2)c1 [1-Benzyl-6-(3-methoxy-phenyl)-2-oxo-4-trifluoromethyl-1,2-dihydro-pyridine-3-carbonitrile] showed a Ki (LXRβ [1]) of 120 nM, a Ki (LXRα [2]) of 510 nM and an EC50 (LXRβ [3]) of 840 nM. For the same molecule, the “LXRβ/LXRE Eff” value (LXRβ [3]) was 79%, the EC50 (LXRα [4]) was 1200 nM and the “LXRα/LXRE Eff” value (LXRα [4]) was 78%.
N#Cc1c(C(F)(F)F)cc(-c2cccs2)n(Cc2ccccc2)c1=O [1-Benzyl-2-oxo-6-thiophen-2-yl-4-trifluoromethyl-1,2-dihydro-pyridine-3-carbonitrile] showed a Ki (LXRβ [1]) of 580 nM, a Ki (LXRα [2]) of 1400 nM and an EC50 (LXRβ [3]) of 1800 nM. The “LXRβ/LXRE Eff” value (LXRβ [3]) was 82%, the EC50 (LXRα [4]) was 1600 nM and the “LXRα/LXRE Eff” value (LXRα [4]) was 56%.
Work on Cc1ccc(Cn2c(-c3ccccc3)cc(C(F)(F)F)c(C#N)c2=O)o1 [1-(5-Methyl-furan-2-ylmethyl)-2-oxo-6-phenyl-4-trifluoromethyl-1,2-dihydro-pyridine-3-carbonitrile] yielded a Ki (LXRβ [1]) of 230 nM, a Ki (LXRα [2]) of 360 nM and an EC50 (LXRβ [3]) of 810 nM. The “LXRβ/LXRE Eff” value (LXRβ [3]) was 93%, the EC50 (LXRα [4]) was 580 nM and the “LXRα/LXRE Eff” value (LXRα [4]) was 91%.
